Counter-ions that a name gives are not always drawn. Like-named read-outs stand apart in the source and are kept apart here.
System: MCh-induced bronchoconstriction
Assay: Einthoven assay: bronchoprotection against methacholine (MCh)-induced bronchoconstriction
Format: in vivo
Settings: for inhibition in vivo at 0.1 mg: inhaled or nasal
Method: This assay measures the ability of a test compound to provide bronchoprotection against methacholine (MCh)-induced bronchoconstriction in a rat. Male Sprague-Dawley rats (Harlan, Indianapolis, Ind.), weighing between 200 g and 350 g, were used for all studies. Test compound or vehicle (sterile deionized water) were dosed by inhalation (1H) over a 10 min period in a pie shaped inhalation chamber (R+S Molds, San Carlos, Calif.) using 5 mL of dosing solution. […] Rats were dosed with 100 μg of test compound unless otherwise indicated. At predetermined time points, rats were anesthetized with an intraperitoneal (IP) injection of 120 mg/kg inactin (thiobutabarbital). A supplemental dose (40 mg/kg, IP) was administered if the animal responded to physical stimuli (e.g. toe pinch). The surgical site was shaved and a 1-2 cm midline incision of the ventral aspect of the neck was made. The jugular vein was isolated and cannulated with a saline-filled polyethylene catheter (PE-50) to allow IV infusion of MCh. Trachea was dissected free and cannulated with a 14G needle (#NE-014, Small Parts, Miami Lakes, Fla.). After placement of the tracheal cannula, each rat was ventilated using a respirator (Model 683, Harvard Apparatus, Inc., MA) set at a stroke volume of 1 mL/100 g body weight (but not exceeding 2.5 mL volume) and a rate of 90 strokes per minute. A T-connector was placed along the respirator expiratory tubing to allow for measurement of changes in ventilation pressure (VP) using a Biopac transducer that was connected to a Biopac […]) pre-amplifier. Body temperature was maintained at 37° C. using a heating pad. Changes in VP were recorded using the Acknowledge Data Collection Software (Santa Barbara, Calif.). Baseline values were collected for at least 2.5 min. Rats were then challenged with non-cumulative intravenous (IV) infusions of 40 and 80 μg/kg MCh. MCh was infused intravenously for 2.5 minutes from a syringe pump (sp210iw, World Precision Instruments, Inc., Sarasota, Fla.) at a rate of 2 mL/kg/min, with a 2 minute interval between the two doses of MCh. Changes in ventilation pressure (cm H2O) in treated animals are expressed as % inhibition of MCh response relative to control animals. Other bronchoconstrictors, such as histamine and acetylcholine, can be used in place of MCh in this assay. Additionally, guinea pigs can be used instead of rats. […] Inhibition greater than or equal to 30 percent at 24 h is indicative of a long duration of action.

[1] = Rattus norvegicus, 24 h, read-out: Broncho. at 24 h, Bronchoprotective effect present at 24 h, 100 μg by inhalation, 24 h after administration
[2] = rat, 100 μg by inhalation, 24 h after administration

Row | SMILES | inhibition in vivo at 0.1 mg [1] [%] | also measured
1 | Cc1ccc(C(=O)NCc2cccc(CC(C)NC[C@H](O)c3ccc(O)c4[nH]c(=O)ccc34)c2)cc1N(C)C(=O)CCN1CCC(OC(=O)Nc2ccccc2-c2ccccc2)CC1 (stereo partly drawn) [Compound I-45, Biphenyl-2-ylcarbamic acid 1-(2-{[5-(3-{2-[(R)-2-hydroxy-2-(8-hydroxy-2-oxo-1,2-dihydroquinolin-5-yl)-ethylamino]propyl}benzylcarbamoyl)-2-methylphenyl]-methylcarbamoyl}ethyl)piperidin-4-yl ester ditrifluoroacetic acid salt] | < 30 | –
2 | CC(Cc1ccc(CNC(=O)Cc2ccc(N(C)C(=O)CCN3CCC(OC(=O)Nc4ccccc4-c4ccccc4)CC3)cc2)cc1)NC[C@H](O)c1ccc(O)c2[nH]c(=O)ccc12 (stereo partly drawn) [Compound I-66, Biphenyl-2-ylcarbamic acid 1-[2-({4-[(4-{2-[(R)-2-hydroxy-2-(8-hydroxy-2-oxo-1,2-dihydroquinolin-5-yl)-ethylamino]propyl}benzylcarbamoyl)methyl]phenyl}-methylcarbamoyl)ethyl]piperidin-4-yl ester ditrifluoroacetic acid salt] | < 30 | –
3 | CC(Cc1cccc(CC(=O)Nc2cccc(N(C)C(=O)CCN3CCC(OC(=O)Nc4ccccc4-c4ccccc4)CC3)c2)c1)NC[C@H](O)c1ccc(O)c2[nH]c(=O)ccc12 (stereo partly shown) [Compound I-52, ditrifluoroacetic acid salt] | < 30 | –
4 | CN(C(=O)CCN1CCC(OC(=O)Nc2ccccc2-c2ccccc2)CC1)c1cccc(C(=O)Nc2ccc(CCNC[C@H](O)c3ccc(O)c4[nH]c(=O)ccc34)cc2)c1 [Compound I-34, Ditrifluoroacetate] | > 30 | –
5 | CN(C(=O)CCN1CCC(OC(=O)Nc2ccccc2-c2ccccc2)CC1)c1cccc(C(=O)Nc2cccc(CCNC[C@H](O)c3ccc(O)c4[nH]c(=O)ccc34)c2)c1 [Compound I-32, ditrifluoroacetic acid salt] | < 30 | –
6 | CC(Cc1ccc(CC(=O)NCc2ccc(N(C)C(=O)CCN3CCC(OC(=O)Nc4ccccc4-c4ccccc4)CC3)cc2)cc1)NC[C@H](O)c1ccc(O)c2[nH]c(=O)ccc12 (stereo partly drawn) [Compound I-80, Biphenyl-2-ylcarbamic acid 1-{2-[(4-{[2-(4-{2-[(R)-2-hydroxy-2-(8-hydroxy-2-oxo-1,2-dihydroquinolin-5-yl)-ethylamino]propyl}phenyl)acetylamino]methyl}-phenyl)methylcarbamoyl]ethyl}piperidin-4-yl ester ditrifluoroacetic acid salt] | < 30 | –
7 | Cc1ccc(C(=O)Nc2cccc(CC(C)NC[C@H](O)c3ccc(O)c4[nH]c(=O)ccc34)c2)cc1N(C)C(=O)CCN1CCC(OC(=O)Nc2ccccc2-c2ccccc2)CC1 (stereo partly drawn) [Compound I-37, Biphenyl-2-ylcarbamic acid 1-(2-{[5-(3-{2-[(R)-2-hydroxy-2-(8-hydroxy-2-oxo-1,2-dihydroquinolin-5-yl)-ethylamino]propyl}phenylcarbamoyl)-2-methylphenyl]-methylcarbamoyl}ethyl)piperidin-4-yl ester ditrifluoroacetic acid salt] | < 30 | –
8 | CN(C(=O)CCN1CCC(OC(=O)Nc2ccccc2-c2ccccc2)CC1)c1ccc(CC(=O)NCc2ccc(CCNC[C@H](O)c3ccc(O)c4[nH]c(=O)ccc34)cc2)cc1 [Compound I-64, Biphenyl-2-ylcarbamic acid 1-[2-({4-[(4-{2-[(R)-2-hydroxy-2-(8-hydroxy-2-oxo-1,2-dihydroquinolin-5-yl)-ethylamino]ethyl}benzylcarbamoyl)methyl]phenyl}-methylcarbamoyl)ethyl]piperidin-4-yl ester ditrifluoroacetic acid salt] | < 30 | –
9 | CC(Cc1ccc(CC(=O)Nc2cccc(N(C)C(=O)CCN3CCC(OC(=O)Nc4ccccc4-c4ccccc4)CC3)c2)cc1)NC[C@H](O)c1ccc(O)c2[nH]c(=O)ccc12 (stereo partly drawn) [Compound I-53, Biphenyl-2-ylcarbamic acid 1-[2-({3-[2-(4-{2-[(R)-2-hydroxy-2-(8-hydroxy-2-oxo-1,2-dihydroquinolin-5-yl)-ethylamino]propyl}phenyl)acetylamino]phenyl}methyl-carbamoyl)ethyl]piperidin-4-yl ester ditrifluoroacetic acid salt] | < 30 | –
10 | Cc1ccc(C(=O)Nc2ccc(CCNC[C@H](O)c3ccc(O)c4[nH]c(=O)ccc34)cc2)cc1N(C)C(=O)CCN1CCC(OC(=O)Nc2ccccc2-c2ccccc2)CC1 [Compound I-35] | – | Broncho. at 24 h; Bronchoprotective effect present at 24 h [2]: Yes (Bronchoprotective effect present at 24 h, e.g., ≧30% inhibition of the MCh response at 24 h in the rat Einthoven assay (100 μg))
11 | C[C@H](Cc1cccc(NC(=O)c2cccc(N(C)C(=O)CCN3CCC(OC(=O)Nc4ccccc4-c4ccccc4)CC3)c2)c1)NC[C@H](O)c1ccc(O)c2[nH]c(=O)ccc12 [Compound I-38, Biphenyl-2-ylcarbamic acid 1-(2-{[3-(3-{(R)-2-[(R)-2-hydroxy-2-(8-hydroxy-2-oxo-1,2-dihydroquinolin-5-yl)-ethylamino]propyl}phenylcarbamoyl)phenyl]methyl-carbamoyl}ethyl)piperidin-4-yl ester ditrifluoroacetic acid salt] | < 30 | –
12 | Cc1cc(CNC[C@H](O)c2ccc(O)c3[nH]c(=O)ccc23)ccc1NC(=O)c1ccc(C)c(N(C)C(=O)CCN2CCC(OC(=O)Nc3ccccc3-c3ccccc3)CC2)c1 [Compound I-28, ditrifluoroacetic acid salt] | < 30 | –
13 | Cc1ccc(C(=O)Nc2cccc(CCNC[C@H](O)c3ccc(O)c4[nH]c(=O)ccc34)c2)cc1N(C)C(=O)CCN1CCC(OC(=O)Nc2ccccc2-c2ccccc2)CC1 [Compound I-33, Biphenyl-2-ylcarbamic acid 1-(2-{[5-(3-{2-[(R)-2-hydroxy-2-(8-hydroxy-2-oxo-1,2-dihydroquinolin-5-yl)-ethylamino]ethyl}phenylcarbamoyl)-2-methylphenyl]-methylcarbamoyl}ethyl)piperidin-4-yl ester ditrifluoroacetic acid salt] | < 30 | –
14 | Cc1ccc(C(=O)Nc2ccc(CC(C)NC[C@H](O)c3ccc(O)c4[nH]c(=O)ccc34)cc2)cc1N(C)C(=O)CCN1CCC(OC(=O)Nc2ccccc2-c2ccccc2)CC1 (stereo partly drawn) [Compound I-41, Biphenyl-2-ylcarbamic acid 1-(2-{[5-(4-{2-[(R)-2-hydroxy-2-(8-hydroxy-2-oxo-1,2-dihydroquinolin-5-yl)-ethylamino]propyl}phenylcarbamoyl)-2-methylphenyl]-methylcarbamoyl}ethyl)piperidin-4-yl ester] | – | inhibition in vivo at 0.1 mg (rat, 100 μg by inhalation, 24 h after administration, read-out: Broncho. at 24 h, Bronchoprotective effect present at 24 h): < 30%
15 | Cc1cc(CNC[C@H](O)c2ccc(O)c3[nH]c(=O)ccc23)ccc1NC(=O)c1cccc(N(C)C(=O)CCN2CCC(OC(=O)Nc3ccccc3-c3ccccc3)CC2)c1 [Compound I-27, Biphenyl-2-ylcarbamic acid 1-(2-{[3-(4-{[(R)-2-hydroxy-2-(8-hydroxy-2-oxo-1,2-dihydroquinolin-5-yl)-ethylamino]methyl}-2-methylphenylcarbamoyl)phenyl]-methylcarbamoyl}ethyl)piperidin-4-yl ester ditrifluoroacetic acid salt] | < 30 | –
16 | CC(Cc1cccc(CCNC(=O)Cc2ccc(N(C)C(=O)CCN3CCC(OC(=O)Nc4ccccc4-c4ccccc4)CC3)cc2)c1)NC[C@H](O)c1ccc(O)c2[nH]c(=O)ccc12 (stereo partly shown) [Compound I-87] | – | Broncho. at 24 h; Bronchoprotective effect present at 24 h [2]: Yes (Bronchoprotective effect present at 24 h, e.g., ≧30% inhibition of the MCh response at 24 h in the rat Einthoven assay (100 μg))
17 | C[C@@H](Cc1cccc(CC(=O)NCc2ccc(N(C)C(=O)CCN3CCC(OC(=O)Nc4ccccc4-c4ccccc4)CC3)cc2)c1)NC[C@H](O)c1ccc(O)c2[nH]c(=O)ccc12 [Compound I-79, ditrifluoroacetic acid salt] | < 30 | –
18 | C[C@H](Cc1cccc(CC(=O)NCCCN(C)C(=O)CCN2CCC(OC(=O)Nc3ccccc3-c3ccccc3)CC2)c1)NC[C@H](O)c1ccc(O)c2[nH]c(=O)ccc12 [Compound I-12, Biphenyl-2-ylcarbamic acid 1-[2-({3-[2-(3-{(R)-2-[(R)-2-hydroxy-2-(8-hydroxy-2-oxo-1,2-dihydroquinolin-5-yl)ethylamino]propyl}phenyl)acetylamino]propyl}-methylcarbamoyl)ethyl]piperidin-4-yl ester ditrifluoroacetic acid salt] | < 30 | –
19 | CC(Cc1cccc(CNC(=O)c2cccc(N(C)C(=O)CCN3CCC(OC(=O)Nc4ccccc4-c4ccccc4)CC3)c2)c1)NC[C@H](O)c1ccc(O)c2[nH]c(=O)ccc12 (stereo partly shown) [Compound I-44, ditrifluoroacetic acid salt] | < 30 | –

Source: patent US8816088B2 (Theravance, Inc., priority 2009, dated 2014)
